Measured values from ChEMBL document CHEMBL4265901, “Eupatilin inhibits angiogenesis-mediated human hepatocellular metastasis by reducing MMP-2 and VEGF signaling” (Bioorg Med Chem Lett, 2018).
Activity calls are given as the source filed them. The rule behind the calls is not given here.

Key:
HUVEC [1] = test: Antiangiogenic activity in HUVEC assessed as inhibition of tube formation at 1.6 uM after 24 hrs by light microscopic analysis relative to control; format: functional; conditions: Homo sapiens
HUVEC [2] = test: Cytotoxicity activity against HUVEC assessed as decrease in cell viability up to 6.25 uM after 24 hrs by MTT assay; format: cell-based; conditions: human
HUVEC [3] = test: Downregulation of HIF-1 alpha protein level in HUVEC at 3.125 uM after 24 hrs by Western blot analysis relative to control; format: functional, Homo sapiens
HUVEC [4] = test: Downregulation of VEGF protein level in HUVEC at 3.125 uM after 24 hrs by Western blot analysis relative to control; format: functional, Homo sapiens
HUVEC [5] = test: Antiangiogenic activity in HUVEC assessed as inhibition of tube formation at 6.25 uM after 24 hrs by light microscopic analysis relative to control; format: functional; conditions: Homo sapiens
HUVEC [6] = test: Downregulation of HIF-1 alpha protein level in HUVEC at 6.25 uM after 24 hrs by Western blot analysis relative to control; format: functional, Homo sapiens
SNU-182 [7] = test: Downregulation of MMP2 mRNA levels in human SNU182 cells at 20 uM after 24 hrs by quantitative real-time qPCR analysis; format: functional, cell-based
HUVEC [8] = test: Downregulation of VEGF level in HUVEC at 6.25 uM after 24 hrs by Western blot analysis relative to control; format: functional, Homo sapiens
HUVEC [9] = test: Antiangiogenic activity in HUVEC assessed as inhibition of tube formation at 3.125 uM after 24 hrs by light microscopic analysis relative to control; format: functional; conditions: Homo sapiens
SNU-182 [10] = test: Downregulation of MMP9 mRNA levels in human SNU182 cells at 20 uM after 24 hrs by quantitative real-time qPCR analysis; format: functional, cell-based
[11] = target: RAC-alpha serine/threonine-protein kinase (Homo sapiens) (UniProt P31749); test: Inhibition of Akt phosphorylation in HUVEC at 3.125 uM after 24 hrs by Western blot analysis relative to control; format: cell-based
SNU-182 [12] = test: Cytotoxicity against human SNU182 cells assessed as decrease in cell viability up to 20 uM after 48 hrs by MTT assay; format: cell-based; conditions: snu-182, 48 h
HepG2 [13] = test: Antiproliferative activity against human HepG2 cells after 24 hrs by MTT assay; format: functional, cell-based
HUVEC [14] = test: Cytotoxicity activity against HUVEC assessed as decrease in cell viability at 12.5 to 100 uM after 24 hrs by MTT assay; format: cell-based; conditions: human
HepG2 [15] = test: Antiproliferative activity against human HepG2 cells at 200 uM after 24 hrs by MTT assay; format: functional
[16] = target: RAC-alpha serine/threonine-protein kinase (Homo sapiens) (UniProt P31749); test: Inhibition of Akt phosphorylation in HUVEC at 6.25 uM after 24 hrs by Western blot analysis relative to control; format: cell-based

Sequence of RAC-alpha serine/threonine-protein kinase (Homo sapiens) (P31749 whole entry): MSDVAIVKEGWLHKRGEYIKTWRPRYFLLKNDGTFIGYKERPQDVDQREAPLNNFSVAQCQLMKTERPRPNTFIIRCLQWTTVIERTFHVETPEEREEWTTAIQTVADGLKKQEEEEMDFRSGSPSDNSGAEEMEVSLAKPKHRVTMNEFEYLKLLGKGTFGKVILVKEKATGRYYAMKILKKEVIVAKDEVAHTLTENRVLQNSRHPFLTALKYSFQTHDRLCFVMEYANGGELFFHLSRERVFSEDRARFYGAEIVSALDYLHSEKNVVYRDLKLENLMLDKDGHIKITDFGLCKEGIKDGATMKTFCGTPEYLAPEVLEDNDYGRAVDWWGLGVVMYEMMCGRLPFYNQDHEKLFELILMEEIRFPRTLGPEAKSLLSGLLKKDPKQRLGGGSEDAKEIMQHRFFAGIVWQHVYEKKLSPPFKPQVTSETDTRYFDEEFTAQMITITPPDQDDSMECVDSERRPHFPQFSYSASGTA

Question: Which inhibition at 1.6 µM (HUVEC [1]) does the source give for `CC(C)=CC[C@@H](O)C1=CC(=O)c2c(O)ccc(O)c2C1=O` [SHIKONIN] here?
Answer: 31.8%

Question: How did the Activity (HUVEC [2]) turn out when `COc1ccc(-c2cc(=O)c3c(O)c(OC)c(O)cc3o2)cc1OC` [EUPATILIN] was run?
Answer: Non-Toxic

Question: What about the “fold change (FC)” value (HUVEC [3]) of the same compound?
Answer: 0.83

Question: And the “fold change (FC)” value (HUVEC [4])?
Answer: 0.88

Question: And the inhibition at 6.25 µM (HUVEC [5])?
Answer: 24.8%

Question: What about the “fold change (FC)” value (HUVEC [6]) of the same compound?
Answer: 0.84

Question: And the Activity (SNU-182 [7])?
Answer: Active

Question: And the Activity (HUVEC [8])?
Answer: 31%

Question: What about the inhibition at 3.125 µM (HUVEC [9]) of the same compound?
Answer: 14.1%

Question: What about the Activity (SNU-182 [10]) of the same compound?
Answer: inactive

Question: And the fold change (FC) [11]?
Answer: 0.82

Question: What about the Activity (SNU-182 [12]) of the same compound?
Answer: Non-Toxic

Question: And the Activity (HepG2 [13])?
Answer: Dose-dependent effect

Question: And the Activity (HUVEC [14])?
Answer: Toxic

Question: What about the Activity (HepG2 [15]) of the same compound?
Answer: 43.24%

Question: What about the fold change (FC) [16] of the same compound?
Answer: 0.8
